The source made the active and inactive calls.
Columns and labels:
Format in all cases: functional, cell-based
SF-539 = test: Growth inhibition of human SF539 cells at 10 uM after 48 hrs by sulforhodamine B assay
LOX IMVI = test: Growth inhibition of human LOXIMVI cells at 10 uM after 48 hrs by sulforhodamine B assay
SK-MEL-5 = test: Growth inhibition of human SK-MEL-5 cells at 10 uM after 48 hrs by sulforhodamine B assay
OVCAR-3 = test: Growth inhibition of human OVCAR3 cells at 10 uM after 48 hrs by sulforhodamine B assay
M14 = test: Growth inhibition of human M14 cells at 10 uM after 48 hrs by sulforhodamine B assay
A498 = test: Growth inhibition of human A498 cells at 10 uM after 48 hrs by sulforhodamine B assay
NCI-H23 = test: Growth inhibition of human NCI-H23 cells at 10 uM after 48 hrs by sulforhodamine B assay
U-251 = test: Growth inhibition of human U251 cells at 10 uM after 48 hrs by sulforhodamine B assay
SNB-75 = test: Growth inhibition of human SNB75 cells at 10 uM after 48 hrs by sulforhodamine B assay
HCT-15 = test: Growth inhibition of human HCT15 cells at 10 uM after 48 hrs by sulforhodamine B assay
OVCAR-8 = test: Growth inhibition of human OVCAR8 cells at 10 uM after 48 hrs by sulforhodamine B assay
SW-620 = test: Growth inhibition of human SW620 cells at 10 uM after 48 hrs by sulforhodamine B assay
RPMI-8226 = test: Growth inhibition of human RPMI8226 cells at 10 uM after 48 hrs by sulforhodamine B assay
RXF 393 = test: Growth inhibition of human RXF393 cells at 10 uM after 48 hrs by sulforhodamine B assay
SK-MEL-28 = test: Growth inhibition of human SK-MEL-28 cells at 10 uM after 48 hrs by sulforhodamine B assay
TK-10 = test: Growth inhibition of human TK10 cells at 10 uM after 48 hrs by sulforhodamine B assay
IGROV-1 = test: Growth inhibition of human IGROV1 cells at 10 uM after 48 hrs by sulforhodamine B assay
MDA-MB-435 = test: Growth inhibition of human MDA-MB-435 cells at 10 uM after 48 hrs by sulforhodamine B assay
HOP-92 = test: Growth inhibition of human HOP92 cells at 10 uM after 48 hrs by sulforhodamine B assay
Malme-3M = test: Growth inhibition of human MALME-3M cells at 10 uM after 48 hrs by sulforhodamine B assay
SK-MEL-2 = test: Growth inhibition of human SK-MEL-2 cells at 10 uM after 48 hrs by sulforhodamine B assay
K562 = test: Growth inhibition of human K562 cells at 10 uM after 48 hrs by sulforhodamine B assay
HL-60(TB) = test: Growth inhibition of human HL-60(TB) cells at 10 uM after 48 hrs by sulforhodamine B assay
BT-549 = test: Growth inhibition of human BT549 cells at 10 uM after 48 hrs by sulforhodamine B assay
OVCAR-4 = test: Growth inhibition of human OVCAR4 cells at 10 uM after 48 hrs by sulforhodamine B assay
ACHN = test: Growth inhibition of human ACHN cells at 10 uM after 48 hrs by sulforhodamine B assay
OVCAR-5 = test: Growth inhibition of human OVCAR5 cells at 10 uM after 48 hrs by sulforhodamine B assay
SF-268 = test: Growth inhibition of human SF268 cells at 10 uM after 48 hrs by sulforhodamine B assay
SK-OV-3 = test: Growth inhibition of human SKOV3 cells at 10 uM after 48 hrs by sulforhodamine B assay
SF-295 = test: Growth inhibition of human SF295 cells at 10 uM after 48 hrs by sulforhodamine B assay
NCI-H226 = test: Growth inhibition of human NCI-H226 cells at 10 uM after 48 hrs by sulforhodamine B assay
A549 = test: Growth inhibition of human A549/ATCC cells at 10 uM after 48 hrs by sulforhodamine B assay
SN12C = test: Growth inhibition of human SN12C cells at 10 uM after 48 hrs by sulforhodamine B assay
HCT-116 = test: Growth inhibition of human HCT116 cells at 10 uM after 48 hrs by sulforhodamine B assay
SR = test: Growth inhibition of human SR cells at 10 uM after 48 hrs by sulforhodamine B assay
CCRF-CEM = test: Growth inhibition of human CCRF-CEM cells at 10 uM after 48 hrs by sulforhodamine B assay
MCF7 = test: Growth inhibition of human MCF7 cells at 10 uM after 48 hrs by sulforhodamine B assay
NCI-H522 = test: Growth inhibition of human NCI-H522 cells at 10 uM after 48 hrs by sulforhodamine B assay
NCI/ADR-RES = test: Growth inhibition of human NCI-ADR-RES cells at 10 uM after 48 hrs by sulforhodamine B assay
HT-29 = test: Growth inhibition of human HT-29 cells at 10 uM after 48 hrs by sulforhodamine B assay
KM12 = test: Growth inhibition of human KM12 cells at 10 uM after 48 hrs by sulforhodamine B assay
MOLT-4 = test: Growth inhibition of human MOLT4 cells at 10 uM after 48 hrs by sulforhodamine B assay
COLO 205 = test: Growth inhibition of human COLO205 cells at 10 uM after 48 hrs by sulforhodamine B assay
HCC 2998 = test: Growth inhibition of human HCC2998 cells at 10 uM after 48 hrs by sulforhodamine B assay
Hs-578T = test: Growth inhibition of human Hs 578T cells at 10 uM after 48 hrs by sulforhodamine B assay
NCI-H460 = test: Growth inhibition of human NCI-H460 cells at 10 uM after 48 hrs by sulforhodamine B assay
SNB-19 = test: Growth inhibition of human SNB19 cells at 10 uM after 48 hrs by sulforhodamine B assay
PC-3 = test: Growth inhibition of human PC3 cells at 10 uM after 48 hrs by sulforhodamine B assay
MDA-MB-468 = test: Growth inhibition of human MDA-MB-468 cells at 10 uM after 48 hrs by sulforhodamine B assay
T47D = test: Growth inhibition of human T47D cells at 10 uM after 48 hrs by sulforhodamine B assay
DU-145 = test: Growth inhibition of human DU145 cells at 10 uM after 48 hrs by sulforhodamine B assay
NCI-H322M = test: Growth inhibition of human NCI-H322M cells at 10 uM after 48 hrs by sulforhodamine B assay
CAKI-1 = test: Growth inhibition of human CAKI-1 cells at 10 uM after 48 hrs by sulforhodamine B assay
MDA-MB-231 = test: Growth inhibition of human MDA-MB-231 cells at 10 uM after 48 hrs by sulforhodamine B assay
HOP-62 = test: Growth inhibition of human HOP62 cells at 10 uM after 48 hrs by sulforhodamine B assay
UACC-62 = test: Growth inhibition of human UACC62 cells at 10 uM after 48 hrs by sulforhodamine B assay
786-0 = test: Growth inhibition of human 786-0 cells at 10 uM after 48 hrs by sulforhodamine B assay
UO-31 = test: Growth inhibition of human UO31 cells at 10 uM after 48 hrs by sulforhodamine B assay
EKVX = test: Growth inhibition of human EKVX cells at 10 uM after 48 hrs by sulforhodamine B assay

Measured: growth inhibition (GI)

O=C1/C(=C\c2cccn2Cc2ccc(F)cc2)c2ccccc2N1c1c(Cl)cccc1Cl
inactive: all assays above

O=C1/C(=C\c2cccn2C(=O)c2ccccc2)c2ccccc2N1c1c(Cl)cccc1Cl
inactive: all assays above
